From patent publication US8435958B2, “Method for producing pectin hydrolysis products” (N.V. Nutricia, priority 2000, dated 2013)

Key:
Caco-2 cells = tested on: Caco-2 cells
Description: The test is based on the migration of cells through the pores of a nucleopore polycarbonate filter in a protein gel that contains several ECM proteins, such as, for example, type 1 and type III collagen, fibronectin, and laminin, to a nitrocellulose filter. […] As a control, the effect of glucose on the invasive capacity of Caco-2 cells was studied.

HT-29 = assay: Growth of colon cancer cell lines on extracellular matrix (ECM), living cell count by trypan blue; format: cell-based, human; details: for Reduction in Cell Growth: 48 hours
Procedure: (§1) Human colon cancer cell lines HT-29 or Caco-2 were seeded with a cell density of 1×10^4 cells/ml in 15 mm Petri dishes and cultivated in medium RPMI 1640+10% fetal calf serum (FCS) (HT-29) or, respectively, in MEM+10% FCS (Caco-2) at 37° C. under an atmosphere containing 5% CO2. The cells were left to grow for 1 to 2 days until reaching confluence. The dishes were then washed once with PBS, then incubated with PBS and 0.5% Triton X-100 for 30 minutes at room temperature on an agitator, and then washed 3 times with PBS. The previously described cell lines then were again seeded on the dishes with the ECM layers prepared in this way. The influence of the pectin hydrolysate on cell growth was determined by counting the cells. For this, the cells were again removed after 48 hours with trypsine/EDTA solution in HBBS (10 min) and were washed in PBS solution. Then the number of living cells was determined by staining with trypan blue solution (650 mg trypan blue in 400 ml 0.9% NaCl, 1:1 (v/v)) in a Neubauer counting chamber. As a control, experiments were performed with glucose.

Caco-2 = assay: as above; format: cell-based, human; details: for Reduction in Cell Growth: 48 hours
Procedure: as §1

[1] = molecular target: T1, galectin-3 on Caco-2 colon cancer cells (Homo sapiens, UniProt P17931); assay: Inhibition of anti-galectin-3 monoclonal antibody binding, immunofluorescence/flow cytometry
T1 construct: endogenous in cells; host or cells: Caco-2 human colon cancer cells
T1 sequence (P17931 whole entry): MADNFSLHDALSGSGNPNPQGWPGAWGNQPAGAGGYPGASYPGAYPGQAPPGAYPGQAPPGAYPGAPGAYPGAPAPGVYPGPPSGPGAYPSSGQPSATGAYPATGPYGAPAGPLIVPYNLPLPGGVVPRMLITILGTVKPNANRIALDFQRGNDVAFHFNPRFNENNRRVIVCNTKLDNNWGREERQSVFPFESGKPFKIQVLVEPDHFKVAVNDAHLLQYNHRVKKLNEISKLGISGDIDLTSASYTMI
Procedure: (§2) The expression of galectin-3 on colon cancer cells was determined with immunofluorescence/flow cytometry methods using an anti-galectin-3-specific monoclonal antibody (mouse-Ig) and a corresponding anti-mouse FITC-coupled secondary antibody.

[2] = molecular target: T2, galectin-3 on HT 29 colon cancer cells (Homo sapiens, UniProt P17931); assay: as above
T2 construct: endogenous in cells; host or cells: HT-29 (HT 29) human colon cancer cells
T2 sequence (P17931 whole entry): as above
Procedure: as §2

E. coli [3] = details: from EP 0 716 605 B1; cited from earlier work
E. coli [4] = assay: Prevention of adhesion of pathogenic germs to human uroepithelial cells; format: cell-based; details: human uroepithelial cells pre-incubated 1, 2 or 3 hours, various concentrations
Procedure: (§3) For this test, human uroepithelian cells obtained by centrifugation from morning urine as well as two strains of staphylococcus aureus and E. coli were used, each as a suspension with 10^9 germs/mL.
(§4) Epithelial cells and germ suspension were incubated together at 37° C. for 30 minutes. The epithelial cells then were separated from the non-adherent germs by membrane filtration (8μ). The filters were washed several times, placed into normal saline, and the epithelial cells were suspended in it. After centrifugation of the suspension in saline, the pellet was applied to slides and stained according to May-Grünwald and Giemsa. The number of germs adhering to 50 epithelial cells were counted. This number represented the blank value. Epithelial cells to which no germ solution had been added were used as a control.
(§5) In the main test, epithelial first were incubated with aqueous solutions of various concentrations consisting of pectin hydrolysis products produced according to the invention (according to Example 1) for 1, 2 or 3 hours. They were then combined with the germ suspension and treated further as described above. The measuring value was obtained by counting the germs adhering to 50 epithelial cells.

staphylococcus aureus = assay: as above; format: cell-based; details: human uroepithelial cells pre-incubated 1, 2 or 3 hours, various concentrations
Procedure: as §3, §4, §5

[5] = HT 29, in relation to the concentration used
[6] = Caco-2, in relation to the concentration used

With `O=C[C@H](O)[C@@H](O)[C@H](O)[C@H](O)CO` [Glucose, glucose] the “reduction of the invasive capacity of Caco-2 cells (text summary of Table 2)” value (Caco-2 cells) was “only caused a slight reduction”, the “Reduction in Cell Growth” value (HT-29; HT 29, concentration 0.01%) was 0% and the “Reduction in Cell Growth” value (HT-29; HT 29, concentration 0.1%) was 1%. For the same molecule, the “Reduction in Cell Growth” value (HT-29; HT 29, concentration 1.0%) was 0%, the “reduced cell growth (text summary of Table 1)” value (HT-29; [5]) was “no influence” and the “Reduction in Cell Growth” value (Caco-2; Caco-2, concentration 0.01%) was 0%. For the same molecule, the “Reduction in Cell Growth” value (Caco-2; Caco-2, concentration 0.1%) was 0%, the “Reduction in Cell Growth” value (Caco-2; Caco-2, concentration 1.0%) was 0% and the “reduced cell growth (text summary of Table 1)” value (Caco-2; [6]) was “no influence”. The “Reduction of Binding Monoclonal Anti-Galectin-3 Antibody” value ([1]; Caco-2, concentration 0.01%) was 0, the “Reduction of Binding Monoclonal Anti-Galectin-3 Antibody” value ([1]; Caco-2, concentration 0.1%) was 0 and the “Reduction of Binding Monoclonal Anti-Galectin-3 Antibody” value ([1]; Caco-2, concentration 1.0%) was 0. For the same molecule, the “reduction of the binding of the monoclonal anti-galectin-3 antibody (Table 3)” value [1, 6] was “not at all or only slightly”, the “Reduction of Binding Monoclonal Anti-Galectin-3 Antibody” value ([2]; HT 29, concentration 0.01%) was 0 and the “Reduction of Binding Monoclonal Anti-Galectin-3 Antibody” value ([2]; HT 29, concentration 0.1%) was 0. The “Reduction of Binding Monoclonal Anti-Galectin-3 Antibody” value ([2]; HT 29, concentration 1.0%) was 2 and the “reduction of the binding of the monoclonal anti-galectin-3 antibody (Table 3)” value [2, 5] was “not at all or only slightly”.

For `O=C(O)[C@H]1O[C@H](O[C@@H]2[C@H](O)[C@@H](O)[C@@H](O)O[C@@H]2C(=O)O)[C@H](O)[C@@H](O)[C@H]1O` [digalacturonide], the “blocking of the adhesion” value (E. coli [3]) is given as at most 91.7%.

In the case of `OC[C@H]1O[C@H](O[C@]2(CO)O[C@H](CO[C@H]3O[C@H](CO)[C@@H](O)[C@H](O)[C@H]3O)[C@@H](O)[C@@H]2O)[C@H](O)[C@@H](O)[C@@H]1O` [isomelezitose], the “blockage of germ adhesion to the epithelial cells” value (from here on “blockage of germ adhesion”) (E. coli [4]) is reported as “No reduction” and the “blockage of germ adhesion” value (staphylococcus aureus) is reported as “No reduction”.

For `O=C(O)[C@H]1OC(O)[C@H](O)[C@@H](O)[C@H]1O` (some centres unmarked) [monogalacturonic acid], the “blocking of the adhesion” value (E. coli [3]) is listed as “no blocking”.

In the case of `OC[C@H]1O[C@@](CO)(OC[C@@]2(OC[C@@]3(O[C@H]4O[C@H](CO)[C@@H](O)[C@H](O)[C@H]4O)O[C@H](CO)[C@@H](O)[C@@H]3O)O[C@H](CO)[C@@H](O)[C@@H]2O)[C@@H](O)[C@@H]1O` [nystose], the “blockage of germ adhesion” value (E. coli [4]) is reported as “No reduction” and the “blockage of germ adhesion” value (staphylococcus aureus) is reported as “No reduction”.

For `OC[C@H]1O[C@H](OC[C@H]2O[C@H](O[C@]3(CO)O[C@H](CO)[C@@H](O)[C@@H]3O)[C@H](O)[C@@H](O)[C@@H]2O)[C@H](O)[C@@H](O)[C@H]1O` [raffinose], the “blockage of germ adhesion” value (E. coli [4]) was “No reduction” and the “blockage of germ adhesion” value (staphylococcus aureus) was “No reduction”.

For `O=C(O)[C@H]1O[C@H](O[C@@H]2[C@H](O)[C@@H](O)[C@@H](O[C@@H]3[C@H](O)[C@@H](O)C(O)O[C@@H]3C(=O)O)O[C@@H]2C(=O)O)[C@H](O)[C@@H](O)[C@H]1O` (some centres unmarked) [trigalacturonide], the “blocking of the adhesion” value (E. coli [3]) is given as at most 84.6%.
